Data set [1] in a line: Cytotoxicity against HEK293T cells. The format is cell-based, HEK-293T. The conditions noted are these: human.
Data set [2] has as its system Human immunodeficiency virus 1. Put plainly: Antiviral activity against HIV1 infected in HEK293T cells by p24 ELISA based phenotypic assay. It counts as functional, organism-based. The settings on record: Human immunodeficiency virus 1, HEK-293T.
Data set [3] concerns Human immunodeficiency virus 1. As to the kind of experiment: Antiviral activity against HIV1 containing reverse transcriptase V106M mutant infected in HEK293T cells by p24 ELISA based phenotypic assay. The format is functional, organism-based. The settings on record: HEK-293T.
Data set [4] has as its system Human immunodeficiency virus 1. As to the kind of experiment: Antiviral activity against HIV1 containing reverse transcriptase Y181C mutant infected in HEK293T cells by p24 ELISA based phenotypic assay. The format is functional, organism-based. The conditions noted are these: HEK-293T. On the technique in general: In an ELISA, binding on a coated surface is turned into a signal by an enzyme label.

In data set [5] the test system is Human immunodeficiency virus 1. As to the kind of experiment: Antiviral activity against HIV1 containing reverse transcriptase G190A mutant infected in HEK293T cells by p24 ELISA based phenotypic assay. The format is functional, organism-based. The conditions noted are these: HEK-293T.
In data set [6] the test system is Human immunodeficiency virus 1. As to the kind of experiment: Antiviral activity against HIV1 containing reverse transcriptase M230I mutant infected in HEK293T cells by p24 ELISA based phenotypic assay. The settings on record: HEK-293T. It counts as functional, organism-based.
The subject of data set [7] is Human immunodeficiency virus 1. As to the kind of experiment: Antiviral activity against HIV1 containing reverse transcriptase K101P mutant infected in HEK293T cells by p24 ELISA based phenotypic assay. The format is functional, organism-based. The conditions noted are these: HEK-293T.
For data set [8], the system named is Human immunodeficiency virus 1. As to the kind of experiment: Antiviral activity against HIV1 containing reverse transcriptase E138Q mutant infected in HEK293T cells by p24 ELISA based phenotypic assay. It counts as functional, organism-based. The conditions noted are these: HEK-293T.
Data set [9] deals with Human immunodeficiency virus 1. Put plainly: Antiviral activity against HIV1 containing reverse transcriptase K103N mutant infected in HEK293T cells by p24 ELISA based phenotypic assay. The format is functional, organism-based. The conditions noted are these: HEK-293T.
The subject of data set [10] is Human immunodeficiency virus 1. As to the kind of experiment: Antiviral activity against HIV1 containing reverse transcriptase Y181I mutant infected in HEK293T cells by p24 ELISA based phenotypic assay. It counts as functional, organism-based. The settings on record: HEK-293T.
In data set [11] the test system is Human immunodeficiency virus 1. As to the kind of experiment: Antiviral activity against HIV1. It counts as functional, organism-based.

The source made the active and inactive calls. No cut-off for these calls is given here.

The CC50 is the concentration giving 50% cytotoxicity. Read a low CC50 as greater toxicity to the cells. By IC50 is commonly meant the concentration that inhibits the measured activity by half. A high value points to weaker potency. With `CCOC(=O)c1[nH]c2ccc(Cl)cc2c1C(O)c1ccccc1` (centres undefined), in data set [1], the half-maximal cytotoxic concentration (CC50) worked out at 22.7 µM. Besides, in [2], the IC50 was found to be 1150 nM.

In the case of `CCOC(=O)c1[nH]c2ccc(Cl)cc2c1C(OC)c1cc(C)cc(C)c1` (centres undefined), the inhibition entry in data set [3], in data set [5], in data set [6], in [7], in data set [8] and in data set [9] was “Active” each time. For the same compound, in data set [10], the inhibition result is “Active”. In data set [1], this compound returned a CC50 of 36.5 µM. Moreover, the inhibition entry in [4] was “inactive”. It took 30 nM to reach half-maximal inhibition in [2] (IC50).

On to `CCOC(=O)c1[nH]c2ccc(Cl)cc2c1C1(c2cccs2)CC1`, for which, in [11], the IC50 amounted to 65 nM.

`NNC(=O)c1[nH]c2ccc(Cl)cc2c1C1(c2ccccc2)CC1` yielded a half-maximal inhibitory concentration (IC50) in data set [2] of 4400 nM.

On to `CCOC(=O)c1[nH]c2ccc(Cl)cc2c1C(OC)c1ccccc1` (centres undefined), for which the inhibition entry in data set [3], in data set [4] and in [9] was “inactive” each time. In data set [1], it took 25.3 µM to reach half-maximal cytotoxicity (CC50). In data set [5], the inhibition entry is “Active”. The same compound came in with an IC50 in [2] of 20 nM.

For `Cc1ccnc2c1NC(=O)c1cccnc1N2C1CC1` [NEVIRAPINE], the half-inhibitory concentration (IC50) in data set [2] turned out to be 120 nM; in data set [11] it was 100 nM.

On to `CCOC(=O)c1[nH]c2ccc(Cl)cc2c1C1(c2ccccc2)CC1`, for which the IC50 in data set [2] was found to be 4800 nM; in [11] it was 85 nM.

As for `O=C(OCCO)c1[nH]c2ccc(Cl)cc2c1C1(c2ccccc2)CC1`, the IC50 in [2] was found to be 712 nM.

Compound `O=C(NCCO)c1[nH]c2ccc(Cl)cc2c1C1(c2ccccc2)CC1` returned an IC50 in data set [2] of 209 nM.

In [1], `COC(c1ccccc1)c1c(S(=O)(=O)C(F)(F)F)[nH]c2ccc(Cl)cc12` (centres undefined) had a half-maximal cytotoxic concentration (CC50) of 24.2 µM. Also, the midpoint of inhibition in data set [2], the IC50, lay at 1200 nM.

For the compound `CCOC(=O)c1[nH]c2ccc(Cl)cc2c1C(OCC)c1ccccc1` (centres undefined), in [1], the cytotoxic concentration (CC50) was determined as 22.8 µM. This compound returned a half-inhibitory concentration (IC50) in data set [2] of 30 nM.

The compound `COC(c1ccccc1)c1c[nH]c2ccc(Cl)cc12` (centres undefined) returned a CC50 in [1] of 67 µM. In addition, the IC50 in data set [2] turned out to be 2430 nM.

In data set [1], `COC(c1cc(C)cc(C)c1)c1c[nH]c2ccc(Cl)cc12` (centres undefined) displayed a CC50 of 67.7 µM. The compound also showed an IC50 in data set [2] of 300 nM.

Source of the values: ChEMBL document CHEMBL3352750, “Novel indole based NNRTIs with improved potency against wild type and resistant HIV” (Bioorg Med Chem Lett, 2014).
